Series [1] can be described thus: UN Test Series 3 overall conclusion. To be noted: sensitivity for transportation. The series is classed as physicochemical. An excerpt:
UN Test Series 3: Drop Impact
Conclusion of UN Tests Series 3 Results:

A short description of series [2]: Adiabatic compression test. The series is classed as physicochemical. The method, then:
Adiabatic Compression Test
This test determines the initiation sensitivity of the material to sudden gas compression, such as liquid inertia compressing entrained gas bubbles during transportation or hydrostatic pressure heads which form when pumping liquid or opening and closing valves. The test is performed with a plunger to rapidly compress gas from a drop height of at least 100 cm within a cylindrical chamber containing the sample. Energy is delivered to the plunger with a drop weight. A failed test is one in which any smoke, discoloration, char, spark or audible report result from the test. Neat propargyl bromide and the single solvent formulation pass the test at drop height of 150 cm in nitrogen and fail the test in air at drop heights of 100 cm and 150 cm.

In the case of `C#CCBr` [neat propargyl bromide, 3-bromopropyne], the “UN Test Series 3 conclusion” value in series [1] is listed as “too sensitive to mechanical impact to allow transportation”. The “Adiabatic compression test result (pass/fail)” value in series [2] (drop height of 150 cm in nitrogen) is on record as “pass”; in series [2] (in air at drop heights of 100 cm and 150 cm), “fail”.
